Assay results as given in the supplement of paper PMC10307832.

How the values were obtained:
Test in all cases: relative viability (nuclei count vs DMSO), 5 days (fraction); higher = more cells survive
[1] = compound: CCN1CCC(CC1)N2C=C(N=N2)CNC3=CC4=C(C(=CN=C4C(=C3)Cl)C#N)NC5=CC(=C(C=C5)F)Cl [KIN001-266] + CC(=O)c1c(C)c2cnc(Nc3ccc(N4CCNCC4)cn3)nc2n(C2CCCC2)c1=O [Palbociclib] (partner 0.5 µM)
In short: (§1)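 Five library-drug doses in √10 steps were combined with a fixed anchor-drug dose, or a single drug was given alone, by pin tool to lung cancer cell lines in 1536-well plates the day after seeding. Nuclei were stained and counted after 5 days. Relative viability is the nuclei count in treated wells over that in vehicle wells, taken as the median of duplicate plates.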

[2] = compound: CCN1CCC(CC1)N2C=C(N=N2)CNC3=CC4=C(C(=CN=C4C(=C3)Cl)C#N)NC5=CC(=C(C=C5)F)Cl [KIN001-266] + COc1cccc2cc(-c3nc([C@H]4CC[C@H](C(=O)O)CC4)n4ncnc(N)c34)[nH]c12 [OSI-027] (partner 0.5 µM)
In short: as §1

[3] = compound: CCN1CCC(CC1)N2C=C(N=N2)CNC3=CC4=C(C(=CN=C4C(=C3)Cl)C#N)NC5=CC(=C(C=C5)F)Cl [KIN001-266] + COc1cc2c(Oc3ccc(NC(=O)C4(C(=O)Nc5ccc(F)cc5)CC4)cc3F)ccnc2cc1OCCCN1CCOCC1 [Foretinib] (partner 0.25 µM)
In short: as §1

[4] = compound: CCN1CCC(CC1)N2C=C(N=N2)CNC3=CC4=C(C(=CN=C4C(=C3)Cl)C#N)NC5=CC(=C(C=C5)F)Cl [KIN001-266]
In short: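 Nuclei counted with MetaXpress define viability as the ratio of treated to vehicle wells, given as a median across plates. The lung cancer cell lines were in 1536-well plates, pinned with five √10-spaced library-drug doses and imaged at 4× after 5 days and Hoechst staining. Plates passed with control CV below 25% and at least one doubling.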

Cell Line	relative viability ([1]; first compound 0.08 µM)	relative viability ([1]; first compound 0.253 µM)	relative viability ([1]; first compound 0.8 µM)	relative viability ([1]; first compound 2.53 µM)	relative viability ([1]; first compound 8 µM)	relative viability ([2]; first compound 0.08 µM)	relative viability ([2]; first compound 0.253 µM)	relative viability ([2]; first compound 0.8 µM)	relative viability ([2]; first compound 2.53 µM)	relative viability ([2]; first compound 8 µM)	relative viability ([3]; first compound 0.08 µM)	relative viability ([3]; first compound 0.253 µM)	relative viability ([3]; first compound 0.8 µM)	relative viability ([3]; first compound 2.53 µM)	relative viability ([3]; first compound 8 µM)	relative viability ([4]; 0.08 µM)	relative viability ([4]; 0.253 µM)	relative viability ([4]; 0.8 µM)	relative viability ([4]; 2.53 µM)	relative viability ([4]; 8 µM)
NCI-H1651	0.528	0.518	0.525	0.533	0.531	0.709	0.787	0.743	0.753	0.636	0.805	0.71	0.774	0.757	0.731	0.955	1.01	0.957	1.01	0.96
NCI-H1666	0.61	0.668	0.601	0.664	0.655	0.838	0.879	0.88	0.849	0.802	0.954	0.95	0.938	0.92	0.892	1.07	1	0.896	0.99	0.959
NCI-H1734	0.342	0.539	0.345	0.321	0.294	0.621	0.583	0.578	0.549	0.522	0.951	0.801	0.704	0.813	0.798	1.01	1.01	1.08	0.858	0.855
NCI-H1755	0.43	0.447	0.432	0.443	0.413	0.74	0.739	0.679	0.723	0.651	0.96	0.913	0.894	0.862	0.83	0.968	0.994	0.995	0.975	0.96
NCI-H1793	0.316	0.358	–	0.354	0.307	0.332	0.254	0.231	0.258	0.204	0.598	0.812	0.718	0.883	0.705	1.04	0.865	0.617	0.787	0.606
NCI-H1915	0.546	0.599	0.514	0.543	0.389	0.703	0.635	0.629	0.661	0.49	1.14	1.06	1.07	1.13	1.11	1.02	0.971	0.982	1.07	0.935
NCI-H1944	0.338	0.355	0.319	0.361	0.351	0.46	0.473	0.373	0.44	0.343	0.898	0.806	0.886	0.911	0.882	1.07	0.972	0.919	1.02	0.974
NCI-H1975	0.709	0.553	0.551	0.609	0.505	0.692	0.776	0.769	0.691	0.555	0.972	0.96	0.966	1.05	1.04	0.989	0.97	0.966	1.03	0.965
NCI-H1993	0.68	0.653	0.66	0.688	0.58	0.562	0.537	0.607	0.582	0.63	0.86	0.777	0.758	0.749	0.675	0.971	0.916	0.815	0.81	0.724
NCI-H2009	0.203	0.257	0.253	0.208	0.203	0.711	0.686	0.744	0.493	0.41	1.15	1.16	1.28	1.23	1.03	0.988	1.06	1	0.982	0.856
NCI-H2023	0.333	0.383	0.388	0.289	0.288	0.449	0.437	0.379	0.368	0.241	0.837	0.959	1.02	0.919	0.556	0.915	0.997	1.15	0.926	0.94
NCI-H2085	0.478	0.494	0.504	0.461	0.38	0.808	0.835	0.582	0.759	0.416	1.06	1.01	0.731	0.939	0.954	1	1.04	0.865	0.973	0.777
NCI-H2087	0.241	0.308	0.267	0.26	0.242	0.823	0.65	0.599	0.458	0.486	1.22	1.17	1.09	1.15	0.962	0.957	1.03	0.94	1.06	0.786
NCI-H2126	0.324	0.366	0.387	0.358	0.365	0.712	0.754	0.696	0.635	0.618	1.12	1.18	1.15	1.26	1.15	1.01	1.03	0.978	0.925	0.975
NCI-H2170	0.375	0.433	0.365	0.407	0.373	0.734	0.769	0.708	0.639	0.719	0.984	1.03	1.01	0.987	0.976	1	0.995	0.979	0.935	1.01
NCI-H2228	0.836	0.797	0.936	0.763	0.664	0.623	0.428	0.606	0.462	0.34	0.76	0.733	0.82	0.89	0.602	1.03	1.02	1.02	0.903	0.808
